According to patent US20150313928A1, “NEW APPLICATION OF CATALPOL” (SUZHOU YOUSEEN NEW PHARMACY DEVELOPMENT CO., LTD., priority 2012, published 2015):

How the values were obtained:
Kunming mice = test: Animal model preparation: injection of levothyroxine sodium (heart rate, serum T3/T4, heart weight index); assay type: in vivo; conditions: levothyroxine sodium 350 μg/kg subcutaneous injection, model group
Description: The animals are placed indoor for milieu adaptation 2 days prior to the experiment. 20 Kunming mice are randomly selected and put in the blank group, administered normal saline by subcutaneous injection, while the other mice are administered levothyroxine sodium 350 μg/kg by subcutaneous injection, with a daily dosage of 10 ml/kg, for 7 consecutive days.
After the third hour at the sixth day of medication, 10 mice (half male and half female) are randomly selected respectively from the blank group and the model group for measurement of heart rate. Under anesthesia, the mice are taken electrocardiogram for calculation of their heart rate. Statistical analysis is then conducted for comparison of differences.
In the case of substantial acceleration of its heart rate, a mouse is suspended of food without suspension of water for 12 hours starting at 8 o'clock of the last day (the seventh day) of medication. Each mouse in each group is taken of its weight at 8 o'clock the next morning. Blood is taken from its eye ball and subsequent to coagulation, put in centrifugation for 15 minutes at 3500 r/min, for measurement of T3 and T4 by means of radioimmunoas say. Each mouse is sacrificed and its heart is taken out for measurement of its heart weight and left ventricular weight. At conclusion of the experiment, the heart weight index and left ventricular weight index is calculated. [Heart weight index HWI=heart weight (HW)/body weight (BW); left ventricular weight index LVWI=left ventricular weight (LVW)/ body weight (BW)]
If the levels of the above indexes are substantially elevated, the model is regarded as successful.

[1] = tested on: mice in the hyperthyroidism model group; test: Measurement of mice weight change; assay type: in vivo, Kunming mice; conditions: for BW2 − BW1: body weight difference; for BW2 − BW1 / BW2: 20 days; for body weight increase: in words, compared with the model group, catalpol groups, methimazole 7.5 mg/kg; for BW2: post-treatment body weight, levothyroxine sodium 350 ug/kg s.c. daily; for BW1: pre-treatment body weight
Description: (§1) The successfully modeled mice are randomized into 5 groups (10 mice per group), that is, the hyperthyroidism model group, the catalpol low dosage group, the catalpol medium group, the catalpol high dosage group, and the methimazole group, plus the blank group (10 mice).
(§2) The catalpol low dosage group is administered 30mg/kg catalpol, the catalpol medium dosage group 60 mg/kg, the catalpol high group 90 mg/kg and the methimazole group 7.5 mg/kg methimazole, all by gastric infusion, while the blank group and the hyperthyroidism group are administered equal amount of distilled water, once per day, for 20 consecutive days. With the exception of the blank group, each mouse in each group continues to be administered 350 ug/kg levothyroxine sodium by means of subcutaneous injection each day.
A mouse is suspended of food without suspension of water for 12 hours starting at 8 o'clock one day prior to the first medication, and all the mice are taken of their body weight (BW) the next day, that is, the pre-treatment body weight (BW1); the mouse is suspended of food without suspension of water for 12 hours starting at 8 o'clock of the day of the last medication, its body weight (BW) is taken the next day, that is, the post-treatment body weight (BW2); the difference of the pre-treatment body weight and the post-treatment body weight is calculated to compare the change of the body weight of the mice among each group.

[2] = tested on: mice in the hyperthyroidism model group; test: Measurement of heart indexes of the mice; assay type: in vivo, Kunming mice; design: HWI / LVWI: unit not given here; conditions: for HWI: heart weight index = HW/BW; for HWI / LVWI: 20 days; for heart weight index / left ventricular index: in words, compared with the model group; for heart weight index: catalpol medium and high dosage and methimazole significant; for left ventricular index: catalpol medium and high dosage significant (P<0.01); for LVWI: left ventricular weight index = LVW/BW
Description: as §1, §2
A mouse is sacrificed its heart instantly taken out for measurement of its heart weight (HW) and (left ventricular weight (LVW). Heart weight index (HWI=HW/BW) and left ventricular weight index (LVWI=LVW/BW) is calculated at conclusion the experiment.

[3] = tested on: mice in the hyperthyroidism model group; test: Measurement of heart rate of the mice (electrocardiogram); assay type: in vivo, Kunming mice
Description: The successfully modeled mice are randomized into 5 groups (10 mice per group), that is, the hyperthyroidism model group, the catalpol low dosage group, the catalpol medium group, the catalpol high dosage group, and the methimazole group, plus the blank group (10 mice). The catalpol low dosage group is administered 30mg/kg catalpol, the catalpol medium dosage group 60 mg/kg, the catalpol high group 90 mg/kg and the methimazole group 7.5 mg/kg methimazole, all by gastric infusion, while the blank group and the hyperthyroidism group are administered equal amount of distilled water, once per day, for 20 consecutive days. With the exception of the blank group, each mouse in each group continues to be administered 350 ug/kg levothyroxine sodium by means of subcutaneous injection each day. All the mice are suspended of food without suspension of water for 12 hours one day prior to the last medication and heart rate is measured 3 hours later. Heart rate (HR) is calculated via the electrocardiogram, statistics is then conducted, and differences are compared.

[4] = tested on: mice in the hyperthyroidism model group; test: Observation of appearance and behavior of the mice; assay type: in vivo, Kunming mice; conditions: in words, as compared with the model group; daily observation
Description: The successfully modeled mice are randomized into 5 groups (10 mice per group), that is, the hyperthyroidism model group, the catalpol low dosage group, the catalpol medium group, the catalpol high dosage group, and the methimazole group, plus the blank group (10 mice). The catalpol low dosage group is administered 30mg/kg catalpol, the catalpol medium dosage group 60 mg/kg, the catalpol high group 90 mg/kg and the methimazole group 7.5 mg/kg methimazole, all by gastric infusion, while the blank group and the hyperthyroidism group are administered equal amount of distilled water, once per day, for 20 consecutive days. With the exception of the blank group, each mouse in each group continues to be administered 350 ug/kg levothyroxine sodium by means of subcutaneous injection each day. Animals were observed and recorded daily for their general status, including mental status, color and hair change, appearance and behavior. In addition, every two days, record is taken of their food intake.

[5] = tested on: mice in the hyperthyroidism model group; test: Measurement of the level of thyroid hormone of serum (radioimmunoassay); assay type: in vivo, Kunming mice; conditions: for T3 level in the serum / FT3 level in the serum / FT4 level in the serum / T4 level in the serum: in words, compared with the model group; for T3 level in the serum: catalpol 30, 60, 90 mg/kg groups, methimazole 7.5 mg/kg, P<0.05; for FT3 level in the serum: catalpol low P<0.01, medium, high and methimazole P<0.05; for FT4 level in the serum: only catalpol low dosage significant (P<0.05); for T4 level in the serum: only methimazole difference significant (P<0.05); for FT3 / FT4 / T3 / T4: serum, 20 days
Description: as §1, §2
A mouse is suspended of food without suspension of water for 12 hours subsequent to the last medication, and blood is taken from its eye ball, put in centrifugation for 15 minutes at 3500 r/min, serum is pumped out for measurement of T3, T4, FT3, and FT4 by means of radioimmunoassay. For detailed operations, see the instruction manual.

[6] = tested on: mice in the hyperthyroidism model group; test: Measurement of the oxygen consumption of the mice; assay type: in vivo, Kunming mice; conditions: for Decrease in oxygen content: measured two days prior to the last medication, 21% minus residual oxygen; for oxygen consumption: in words, compared with the model group, catalpol low (30 mg/kg) and high (90 mg/kg) dosage groups, methimazole 7.5 mg/kg
Description: as §1, §2
Oxygen consumption is measured two days prior to the last medication. The specific method is: take a model CY-3 digital oxygen meter and install therein an oxygen electrode. Connect, perform zero adjustment, and repeat until the instrument is stable for use. Take a 500 ml bottle, fix its outward connecting pipe with a rubber cover, seal with Vaseline. The rubber cover is connected via a tee, and a shift in the tee is selectable for connection or disconnection with outer space. A mouse is placed inside the bottle, and the mouth of the bottle is instantly covered with a wood plug to shut off air from the inner flask. The filtering flask is horizontally placed on the experiment table, and timing of 20 minutes After 20 minute, 10 ml air from the bottle was taken out by a injector and rapidly injected into a connector of the CY-3 type digital oxygen analyzer with the oxygen analyzer indicating oxygen content of the pumped in air. The data, when stable, is recorded as the residual oxygen value, then the oxygen consumption (20 min, 10 ml)=21%—residual oxygen value (%). (21% oxygen in air).

[7] = catalpol 30 mg/kg gastric infusion once per day
[8] = catalpol 60 mg/kg gastric infusion once per day
[9] = catalpol 90 mg/kg gastric infusion once per day
[10] = in words, compared with the model group, catalpol 30, 60, 90 mg/kg groups, methimazole 7.5 mg/kg
[11] = methimazole 7.5 mg/kg gastric infusion once per day

## N[C@@H](Cc1cc(I)c(Oc2cc(I)c(O)c(I)c2)c(I)c1)C(=O)O [levothyroxine sodium]
Kunming mice; heart weight index = HW/BW, 7 day
  HWI: 5.642 mg/g
Kunming mice; left ventricular weight index = LVW/BW, 7 day
  LVWI: 3.735 mg/g
Kunming mice; 6 day, mean ± S
  HR: 674.42 times/min
Kunming mice; serum, 7 day, mean ± S
  T3: 2.89 ng/mL
  T4: 311.43 ng/mL

## OC[C@H]1O[C@@H](O[C@@H]2OC=C[C@H]3[C@H](O)[C@@H]4O[C@]4(CO)[C@@H]23)[C@H](O)[C@@H](O)[C@@H]1O [Catalpol]
[1]; [7]
  BW2 − BW1: 9.00 g
  BW2: 36.40 g
[1]; [8]
  BW2 − BW1: 10.10 g
  BW2: 37.80 g
[1]; [9]
  BW2 − BW1: 10.15 g
  BW2: 37.75 g
[1]
  body weight increase: more body weight increase to some extent
[1]; catalpol 30 mg/kg group
  BW1: 27.40 g
[1]; catalpol 60 mg/kg group
  BW1: 27.70 g
[1]; catalpol 90 mg/kg group
  BW1: 27.60 g
[2]; [7]
  HWI: 5.912
  LVWI: 1.786
[2]; [8]
  HWI: 5.650
  LVWI: 1.625
[2]; [9]
  HWI: 5.58
  LVWI: 1.582
[2]
  heart weight index: decreased heart weight index to some extent
  left ventricular index: decreased left ventricular index to some extent
[3]; catalpol 30 mg/kg gastric infusion once per day, 20 days, levothyroxine sodium 350 ug/kg s.c. daily
  Heart rate: 507.56 times/min
[3]; catalpol 60 mg/kg gastric infusion once per day, 20 days, levothyroxine sodium 350 ug/kg s.c. daily
  Heart rate: 538.75 times/min
[3]; catalpol 90 mg/kg gastric infusion once per day, 20 days, levothyroxine sodium 350 ug/kg s.c. daily
  Heart rate: 529.63 times/min
[3]; [10]
  Heart rate: decreased heart rate to some extent
[4]
  appearance and behavior of the mice: quieter and have reduced symptoms of dysphoria, excitability, and drier and darker hair
[5]
  T3 level in the serum: decreased T3 level in the serum to some extent
  FT3 level in the serum: decreased FT3 level in the serum to some extent
  FT4 level in the serum: decreased FT4 level in the serum to some extent
  T4 level in the serum: decreased T4 level in the serum to some extent
[5]; [7]
  FT3: 7.49 ng/mL
  FT4: 22.87 ng/mL
  T3: 3.84 ng/mL
  T4: 181.02 ng/mL
[5]; [8]
  FT3: 8.22 ng/mL
  FT4: 23.77 ng/mL
  T3: 3.52 ng/mL
  T4: 179.90 ng/mL
[5]; [9]
  FT3: 7.56 ng/mL
  FT4: 24.02 ng/mL
  T3: 3.50 ng/mL
  T4: 178.50 ng/mL
[6]; catalpol 30.0 mg/kg gastric infusion once per day
  Decrease in oxygen content: 8.88 %, 20 min
[6]; catalpol 60.0 mg/kg gastric infusion once per day
  Decrease in oxygen content: 9.03 %, 20 min
[6]; [9]
  Decrease in oxygen content: 8.81 %, 20 min
[6]
  oxygen consumption: significantly decreased oxygen consumption

## Cn1cc[nH]c1=S [methimazole, reference compound]
[1]; [11]
  BW2 − BW1: 9.00 g
  BW2: 36.30 g
[1]
  body weight increase: more body weight increase to some extent
[1]; methimazole 7.5 mg/kg group
  BW1: 27.30 g
[2]; [11]
  HWI: 5.784
  LVWI: 1.560
[2]
  heart weight index: decreased heart weight index to some extent
  left ventricular index: decreased left ventricular index to some extent
[3]; [10]
  Heart rate: decreased heart rate to some extent
[3]; methimazole 7.5 mg/kg gastric infusion once per day, 20 days, levothyroxine sodium 350 ug/kg s.c. daily
  Heart rate: 474.02 times/min
[5]
  T3 level in the serum: decreased T3 level in the serum to some extent
  FT3 level in the serum: decreased FT3 level in the serum to some extent
  FT4 level in the serum: decreased FT4 level in the serum to some extent
  T4 level in the serum: decreased T4 level in the serum to some extent
[5]; [11]
  FT3: 8.80 ng/mL
  FT4: 26.85 ng/mL
  T3: 3.64 ng/mL
  T4: 145.61 ng/mL
[6]
  oxygen consumption: significantly decreased oxygen consumption
[6]; [11]
  Decrease in oxygen content: 8.53 %, 20 min
